Reference: patent US6833380B2, “Compounds that modulate PPAR activity and methods of preparation” (Warner-Lambert Company, LLC, priority 2002, dated 2004)

What was measured:
hPPARβ chimeric receptor = target: T1, hPPARβ chimeric receptor (Homo sapiens, UniProt Q03181); experiment: Transient transfections assay using the HepG2 hepatoma cell line (Gal4-PPAR chimeric receptor, luciferase reporter), hPPARβ; assay type: cell-based; conditions: HepG2 cells transiently transfected, 24 hours incubation, read-out: Hep G2-hβ EC50
T1 construct: "expression plasmids encoding hPPARα, hPPARβ or mPPARγ chimeric receptors"
T1 sequence (Q03181 171-441 limits assumed): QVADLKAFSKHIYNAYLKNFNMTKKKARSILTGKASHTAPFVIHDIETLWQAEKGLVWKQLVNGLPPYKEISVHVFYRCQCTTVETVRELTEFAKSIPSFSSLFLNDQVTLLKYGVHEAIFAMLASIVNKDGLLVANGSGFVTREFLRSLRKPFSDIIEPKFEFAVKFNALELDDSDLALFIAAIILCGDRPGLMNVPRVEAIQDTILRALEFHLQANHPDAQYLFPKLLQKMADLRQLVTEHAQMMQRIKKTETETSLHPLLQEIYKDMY
Description: (§1) 1. Test A. Transient Transfections Assay using the HepG2 Hepatoma Cell Line.
(§2) HepG2 cells were transiently transfected with an expression plasmids encoding hPPARα, hPPARβ or mPPARγ chimeric receptors and a reporter containing the yeast upstream activating sequence (UAS) upstream of the viral E1B promoter controlling a luciferase reporter gene. In addition, the plasmid pRSVβ-gal was used to control for transfection efficiency. HepG2 cells were grown in DMEM supplemented with 10% FBS and […] non-essential amino acid. On the first day, cells were split into 100 mm dishes at 2.5×10^6/dish and incubated overnight at 37° C./5% CO2. On the second day the cells were transiently transfected with plasmid DNA encoding a chimeric receptor, the luciferase reporter gene; and β-gal. For each 100 mm dish, 15 μg of lucifease reporter (PG5E1b) DNA, 15 μg of Gal4-PPAR chimeric receptor DNA, and 1.5 μg of β-gal plasmid DNA were mixed with 1.4 ml of opti-MEM in the tube. 28 μl of LipoFectamine-2000 reagent was added to 1.4 ml of opti-MEM in the tube, and incubate for 5 min at RT. The diluted Lipofectamine-2000 reagent was combined with the DNA mixture, and incubate for 20 min at RT. After fresh medium was added to each 100 mm dish of cells, 2.8 ml of Lipofectamine2000-DNA mixture was added dropwise to the 100 mm dish containing 14 ml of medium, and incubate 37° C. overnight. On day three cells were trypsinized off the 100 mm dishes and re-plated on 96 well plates. Cells were plated at 2.5×10^4 cells per well in 150 μl of media and 50 μl of compound diluted by media was added. The test compound added were in the range from 50 μM to 50 pM. After addition of compounds, the plates were incubated at 37° C. for 24 hours. Subsequently cells were washed with once with 100 μl of PBS, lysed, and processed for measuring luciferase and β-gal activity using Dual-Light luciferase kit from Tropix®, according to the manufacturer's recommendations, on an EG&G Bethold MicroLumat LB96P luminometer. EC50 values were obtained using the GraphPad Prism™ program. […] Accordingly, the compounds of the present invention should find considerable therapeutic applications for hypercholesterolemia and hyperlipidemia.

hPPARα chimeric receptor = target: T2, hPPARα chimeric receptor (Homo sapiens, UniProt Q07869); experiment: Transient transfections assay using the HepG2 hepatoma cell line (Gal4-PPAR chimeric receptor, luciferase reporter), hPPARα; assay type: cell-based; conditions: HepG2 cells transiently transfected, 24 hours incubation, read-out: Hep G2-hα EC50
T2 construct: "expression plasmids encoding hPPARα, hPPARβ or mPPARγ chimeric receptors"
T2 sequence (Q07869 200-468 limits assumed): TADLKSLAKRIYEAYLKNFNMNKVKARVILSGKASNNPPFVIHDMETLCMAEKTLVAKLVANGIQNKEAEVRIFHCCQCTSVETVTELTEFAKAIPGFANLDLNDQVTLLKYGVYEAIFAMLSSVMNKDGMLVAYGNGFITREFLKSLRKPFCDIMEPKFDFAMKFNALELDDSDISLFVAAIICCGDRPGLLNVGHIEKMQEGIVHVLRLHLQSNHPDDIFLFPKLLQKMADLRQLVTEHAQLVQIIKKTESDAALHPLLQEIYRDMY
Description: as §1, §2

Which EC50 (hPPARβ chimeric receptor) does the source give for `Cc1cc(SCc2sc(-c3ccc(C(F)(F)F)cc3)nc2C)c2c(c1OCC(=O)O)CCO2` [Example 5, 2-[5-methyl-7-({4-methyl-2-[4-(trifluoromethyl)phenyl](1,3-thiazol-5-yl)}methylthio)-2,3-dihydrobenzo[b]furan-4-yloxy]acetic acid] here?
The EC50 was 0.8 nM.

And the EC50 (hPPARα chimeric receptor)?
The EC50 was 52 nM.

And the melting point?
The melting point was 157 to 158 °C.

Which EC50 (hPPARβ chimeric receptor) does the source give for `Cc1nc(-c2ccc(C(F)(F)F)cc2)sc1CSc1ccc(OCC(=O)O)c2ccccc12` [Example 3, {4-[4-Methyl-2-(4-trifluoromethyl-phenyl)-thiazol-5-ylmethylsulfanyl]-naphthalen-1-yloxy}-acetic acid] here?
Its EC50 is 76 nM.

And the EC50 (hPPARα chimeric receptor)?
Its EC50 is 3580 nM.

And the melting point?
Its melting point is 181 to 183 °C.

With `Cc1cc(SCc2sc(-c3ccc(C(F)(F)F)cc3)nc2C)c2c(c1OCC(=O)O)CCCO2` [Example 4, 2-[6-methyl-8-({4-methyl-2-[4-(trifluoromethyl)phenyl](1,3-thiazol-5-yl)}methylthio)chroman-5-yloxy]acetic acid] as the molecule, how does the EC50 (hPPARβ chimeric receptor) read?
Its EC50 is 45 nM.

What about the EC50 (hPPARα chimeric receptor) of the same molecule?
Its EC50 is 1760 nM.

And the melting point?
The melting point was 203.5 to 205.5 °C.

Which EC50 (hPPARβ chimeric receptor) does the source give for `Cc1nc(-c2ccc(C(F)(F)F)cc2)sc1CSc1ccc(OCC(=O)O)c2c1CCCC2` [Example 2, {4-[4-Methyl-2-(4-trifluoromethyl-phenyl)-thiazol-5-ylmethylsulfanyl]-5,6,7,8-tetrahydro-naphthalen-1-yloxy}-acetic acid] here?
Its EC50 is 52 nM.

And the EC50 (hPPARα chimeric receptor)?
Its EC50 is 2970 nM.

What about the melting point of the same molecule?
Its melting point is 166 to 167 °C.

For `Cc1cc(SCc2sc(-c3ccc(C(F)(F)F)cc3)nc2C)c2c(c1OCC(=O)O)CCC2` [Example 6, {5-Methyl-7-[4-methyl-2-(4-trifluoromethyl-phenyl)-thiazol-5-ylmethylsulfanyl]-indan-4-yloxy}-acetic acid], which EC50 (hPPARβ chimeric receptor) is on record?
The EC50 was 133 nM.

What about the EC50 (hPPARα chimeric receptor) of the same molecule?
Its EC50 is 191 nM.

What about the melting point of the same molecule?
The melting point was 184 °C.

With `Cc1nc(-c2ccc(C(F)(F)F)cc2)sc1CSc1ccc(OCC(=O)O)c2c1OCCC2` [Example 1, {8-[4-Methyl-2-(4-trifluoromethyl-phenyl)-thiazol-5-ylmethylsulfanyl]-chroman-5-yloxy}-acetic acid] as the molecule, how does the EC50 (hPPARβ chimeric receptor) read?
The EC50 was 187 nM.
